This is an account of results in patent US20260078108A1, “SOLID FORMS OF A ROCK INHIBITOR” (REDX PHARMA PLC, priority 2022, published 2026).

The target in assay [1] is T1, M2 (h) (Homo sapiens, UniProt P08172).
T1 construct: expressed in transfected cells; host or cells: CHO cells
T1 sequence (P08172 1-466): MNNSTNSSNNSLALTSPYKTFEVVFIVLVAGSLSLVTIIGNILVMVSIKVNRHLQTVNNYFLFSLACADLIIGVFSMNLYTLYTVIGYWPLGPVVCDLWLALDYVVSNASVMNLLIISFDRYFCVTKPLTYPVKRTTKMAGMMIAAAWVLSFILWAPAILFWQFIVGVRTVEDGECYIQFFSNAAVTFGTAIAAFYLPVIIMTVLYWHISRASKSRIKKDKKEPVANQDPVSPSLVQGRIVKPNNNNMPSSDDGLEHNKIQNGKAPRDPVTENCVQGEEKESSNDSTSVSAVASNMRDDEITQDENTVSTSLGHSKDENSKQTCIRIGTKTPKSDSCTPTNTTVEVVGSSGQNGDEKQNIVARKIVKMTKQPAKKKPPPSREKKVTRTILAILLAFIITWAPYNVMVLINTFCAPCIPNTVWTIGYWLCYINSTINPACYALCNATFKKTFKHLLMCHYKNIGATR
Kind of assay: CEREP panel M2 (h) agonist effect, cAMP HTRF. Format: cell-based. To be noted: HCl salt tested, CHO cells. The source says:
(§1) The use of in vitro pharmacological screening against a diverse range of targets (receptors, ion channels, enzymes and transporters) is used to identify undesirable off-target activity that may cause adverse drug reactions in humans. Screening panels (e.g. SafetyScreen44™ Panel, Eurofins) comprise a selection of off-targets linked with known issues in humans that could hinder or halt the development of drug candidates or market withdrawal if discovered after a drug is approved. The HCl salts of the S enantiomer and the R enantiomer of compound A were tested against a panel of such targets.
(§2) The tests were carried out according to the methods described in the following tables and indicated literature references.
(In general: In TR-FRET formats the signal depends on donor and acceptor labels being close together.)

Assay [2] addresses T2, Haspin (Homo sapiens, UniProt Q8TF76).
T2 sequence (Q8TF76 1-798): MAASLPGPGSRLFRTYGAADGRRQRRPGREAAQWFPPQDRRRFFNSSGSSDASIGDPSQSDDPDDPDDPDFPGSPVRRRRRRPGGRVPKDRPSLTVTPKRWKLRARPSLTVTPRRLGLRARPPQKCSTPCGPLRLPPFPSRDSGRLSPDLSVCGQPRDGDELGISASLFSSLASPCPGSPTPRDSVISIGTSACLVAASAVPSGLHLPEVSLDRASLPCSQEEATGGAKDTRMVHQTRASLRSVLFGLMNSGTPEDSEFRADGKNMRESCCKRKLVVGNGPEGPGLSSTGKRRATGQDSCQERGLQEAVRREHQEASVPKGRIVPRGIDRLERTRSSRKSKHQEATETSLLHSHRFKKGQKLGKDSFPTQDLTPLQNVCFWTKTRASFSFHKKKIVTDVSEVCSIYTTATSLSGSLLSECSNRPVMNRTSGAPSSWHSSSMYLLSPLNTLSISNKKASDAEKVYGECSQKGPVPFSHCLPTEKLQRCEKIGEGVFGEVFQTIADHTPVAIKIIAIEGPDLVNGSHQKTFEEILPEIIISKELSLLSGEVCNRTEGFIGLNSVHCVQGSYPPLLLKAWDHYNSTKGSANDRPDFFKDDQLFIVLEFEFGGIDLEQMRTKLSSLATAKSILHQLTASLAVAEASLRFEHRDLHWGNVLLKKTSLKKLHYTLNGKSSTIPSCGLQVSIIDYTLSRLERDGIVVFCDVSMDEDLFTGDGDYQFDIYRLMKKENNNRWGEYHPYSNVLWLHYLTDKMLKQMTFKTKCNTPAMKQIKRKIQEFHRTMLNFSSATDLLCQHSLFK
Kind of assay: Kinase panel 33P-ATP filter assay, Haspin. Format: biochemical. To be noted: HCl salt tested; ATP Conc. 20 μM (Km); read-out: Compound IC50 (nM) Haspin. The method, then:
The HCl salts of S enantiomer and the R enantiomer of compound A were tested against a panel of kinases.
Compounds were received as powder and resuspended to 10 mM DMSO stock. Compounds were tested in 10-dose IC50 mode with a 3-fold serial dilution starting at 10 μM. Control compound, staurosporine, was tested in 10-dose IC50 mode with 4-fold serial dilution starting at 20 μM.
Reaction Conditions: Buffer Conditions: 20 mM HEPES ((4-(2-hydroxyethyl)-1-piperazineethanesulfonic acid; pH 7.5), 10 mM MgCl2, 1 mM EGTA (Ethyleneglycol-bis(p-aminoethyl)-N,N,N′,N′-tetraacetic Acid), 0.01% Brij35, 0.02 mg/ml BSA (Bovine serum albumin), 0.1 mM Na3VO4, 2 mM DTT (Dithiothreitol), 1% DMSO. Reaction Procedure: 1. Prepare indicated substrate in freshly prepared reaction buffer. 2. Deliver required cofactors to the substrate solution above. 3. Deliver indicated kinase into the substrate solution and mix gently. 4. Deliver compounds in DMSO into the kinase reaction mixture utilizing acoustic technology (Echo550). 5. Deliver ^33P-ATP (specific activity 0.01 μCi/μl final) into the reaction mixture to initiate the reaction. 6. Incubate kinase reaction for 120 minutes at room temperature. 7. […] Data Analysis: Kinase activity data were expressed as the percent remaining kinase activity in test samples compared to vehicle (dimethyl sulfoxide) reactions. […]

Assay [3] has as its target T3, Serotonin transporter (Homo sapiens, UniProt P31645).
T3 construct: expressed in transfected cells
Kind of assay: CEREP panel serotonin transporter uptake (h), [3H]5HT incorporation. To be noted: HCl salt tested; [3H]5HT incorporation in cells. The format is cell-based.
From the text: as §1, §2

The target of assay [4] is T4, μ (MOP) (h) (Homo sapiens, UniProt P35372).
T4 construct: expressed in transfected cells; host or cells: CHO cells
T4 sequence (P35372 whole entry): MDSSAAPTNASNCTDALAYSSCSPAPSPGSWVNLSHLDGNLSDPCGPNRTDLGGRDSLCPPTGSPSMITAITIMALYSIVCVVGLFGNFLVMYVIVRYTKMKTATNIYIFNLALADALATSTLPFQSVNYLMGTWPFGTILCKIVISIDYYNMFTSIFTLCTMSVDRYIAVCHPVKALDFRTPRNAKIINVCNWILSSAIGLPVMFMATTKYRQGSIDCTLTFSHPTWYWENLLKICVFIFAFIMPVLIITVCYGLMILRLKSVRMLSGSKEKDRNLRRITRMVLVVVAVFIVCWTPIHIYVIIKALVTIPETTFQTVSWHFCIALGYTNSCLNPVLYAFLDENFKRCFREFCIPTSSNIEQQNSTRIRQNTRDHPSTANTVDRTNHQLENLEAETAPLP
Briefly: CEREP panel mu (MOP) (h) agonist effect, cAMP HTRF. To be noted: HCl salt tested, CHO cells. The format is cell-based.
From the text: as §1, §2

Assay [5] addresses ROCK1 (Homo sapiens, UniProt Q13464). Kind of assay: Activity against kinase ROCK1. The format is biochemical. To be noted: comparison of enantiomers.
Assay [6] concerns the target T5, CB1 (h) (Homo sapiens, UniProt P21554).
T5 construct: expressed in transfected cells; host or cells: CHO cells
Briefly: CEREP panel CB1 (h) agonist effect, cAMP HTRF. Format: cell-based. To be noted: HCl salt tested, CHO cells.
From the text: as §1, §2

In general, EC50 refers to the concentration that produces a half-maximal response. The IC50 is the midpoint of a concentration-inhibition curve.

ROCK1, sequence (Q13464 whole entry, species assumed): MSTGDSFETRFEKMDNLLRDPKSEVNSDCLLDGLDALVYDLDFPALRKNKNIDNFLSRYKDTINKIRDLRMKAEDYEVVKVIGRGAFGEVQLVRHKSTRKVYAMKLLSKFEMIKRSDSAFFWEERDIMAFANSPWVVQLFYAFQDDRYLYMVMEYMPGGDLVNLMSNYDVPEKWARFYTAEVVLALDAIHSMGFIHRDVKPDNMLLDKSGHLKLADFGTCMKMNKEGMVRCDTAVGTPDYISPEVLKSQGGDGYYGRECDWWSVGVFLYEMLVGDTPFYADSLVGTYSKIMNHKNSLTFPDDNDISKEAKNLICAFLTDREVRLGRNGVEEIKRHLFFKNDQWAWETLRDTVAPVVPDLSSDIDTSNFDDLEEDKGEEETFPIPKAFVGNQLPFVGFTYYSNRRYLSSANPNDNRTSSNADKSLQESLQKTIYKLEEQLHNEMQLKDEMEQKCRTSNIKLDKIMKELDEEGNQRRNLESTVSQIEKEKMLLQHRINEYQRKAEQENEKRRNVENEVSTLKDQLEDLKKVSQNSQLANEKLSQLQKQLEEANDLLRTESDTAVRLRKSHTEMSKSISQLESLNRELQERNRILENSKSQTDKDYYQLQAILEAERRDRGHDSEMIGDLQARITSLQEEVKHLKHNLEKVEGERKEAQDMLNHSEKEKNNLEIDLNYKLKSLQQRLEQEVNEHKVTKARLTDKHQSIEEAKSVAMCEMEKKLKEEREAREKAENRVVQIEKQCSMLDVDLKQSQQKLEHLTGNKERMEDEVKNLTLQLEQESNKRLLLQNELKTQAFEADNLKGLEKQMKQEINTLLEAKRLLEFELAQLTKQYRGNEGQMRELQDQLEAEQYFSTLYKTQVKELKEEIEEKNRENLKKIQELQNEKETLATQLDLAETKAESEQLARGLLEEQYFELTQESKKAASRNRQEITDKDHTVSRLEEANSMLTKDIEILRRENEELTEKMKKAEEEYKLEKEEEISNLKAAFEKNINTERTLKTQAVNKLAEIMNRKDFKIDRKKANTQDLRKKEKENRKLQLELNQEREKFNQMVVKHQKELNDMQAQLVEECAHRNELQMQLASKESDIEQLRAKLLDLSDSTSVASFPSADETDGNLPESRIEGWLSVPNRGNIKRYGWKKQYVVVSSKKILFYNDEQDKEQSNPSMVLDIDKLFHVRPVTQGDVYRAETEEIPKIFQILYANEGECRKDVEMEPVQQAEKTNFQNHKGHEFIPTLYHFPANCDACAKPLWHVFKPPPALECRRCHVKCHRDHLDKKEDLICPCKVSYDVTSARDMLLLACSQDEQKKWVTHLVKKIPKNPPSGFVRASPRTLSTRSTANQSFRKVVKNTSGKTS
T3 sequence (P31645 whole entry): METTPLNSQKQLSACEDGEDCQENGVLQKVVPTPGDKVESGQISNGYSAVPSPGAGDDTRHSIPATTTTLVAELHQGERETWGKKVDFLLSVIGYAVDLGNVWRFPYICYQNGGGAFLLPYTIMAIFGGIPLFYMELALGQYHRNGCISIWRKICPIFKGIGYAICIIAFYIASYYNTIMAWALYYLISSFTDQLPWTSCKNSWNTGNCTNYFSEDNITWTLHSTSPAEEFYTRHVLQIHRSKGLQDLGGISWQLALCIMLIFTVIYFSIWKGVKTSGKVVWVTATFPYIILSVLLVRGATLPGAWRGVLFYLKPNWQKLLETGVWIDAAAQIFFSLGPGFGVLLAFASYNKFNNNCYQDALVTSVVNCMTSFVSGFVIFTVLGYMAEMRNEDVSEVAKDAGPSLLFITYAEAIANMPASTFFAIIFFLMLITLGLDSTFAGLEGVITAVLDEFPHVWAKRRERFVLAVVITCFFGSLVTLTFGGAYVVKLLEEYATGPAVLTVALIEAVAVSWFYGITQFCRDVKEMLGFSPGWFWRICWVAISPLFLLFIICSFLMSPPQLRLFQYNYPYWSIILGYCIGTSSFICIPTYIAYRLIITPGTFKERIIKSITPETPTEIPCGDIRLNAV
T5 sequence (P21554 whole entry): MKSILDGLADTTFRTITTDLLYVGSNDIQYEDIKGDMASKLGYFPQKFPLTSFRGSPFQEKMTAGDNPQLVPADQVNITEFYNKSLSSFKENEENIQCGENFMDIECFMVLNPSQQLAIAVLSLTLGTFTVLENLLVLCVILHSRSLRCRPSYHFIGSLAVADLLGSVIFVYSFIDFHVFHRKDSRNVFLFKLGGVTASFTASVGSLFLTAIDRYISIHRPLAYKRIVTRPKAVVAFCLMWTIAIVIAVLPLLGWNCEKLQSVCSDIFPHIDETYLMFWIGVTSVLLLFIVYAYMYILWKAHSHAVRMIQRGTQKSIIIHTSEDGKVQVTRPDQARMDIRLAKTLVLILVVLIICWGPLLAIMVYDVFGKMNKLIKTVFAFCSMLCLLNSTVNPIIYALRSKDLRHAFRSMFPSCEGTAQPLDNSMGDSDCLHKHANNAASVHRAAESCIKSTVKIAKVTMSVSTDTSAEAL

With `NCc1ccc(C(=O)Nc2ccncc2F)cc1-c1cccc(C(=O)Nc2ccc(SC[C@H]3CCOC3=O)cc2)c1` [S-enantiomer], the EC50 in assay [1] amounted to 93 µM; in assay [4], 84 µM. Besides, the 50% inhibitory concentration (IC50) in assay [2] stood at 297 nM; in assay [3], 11 µM. In assay [5], the “Difference between activities of S- and R-enantiomer against ROCK1” value was “no statistically meaningful difference”. Moreover, in assay [6], the “CB1 (h) (agonist effect) (EC50)” value was “Inactive”.
Take `NCc1ccc(C(=O)Nc2ccncc2F)cc1-c1cccc(C(=O)Nc2ccc(SC[C@@H]3CCOC3=O)cc2)c1` [R-enantiomer]: the EC50 is greater than 10 µM in assay [1] and 3 µM in assay [4]. Also, the values for the IC50 in assay [2] and in assay [3] were 134 nM and 6 µM, respectively. Further, the “Difference between activities of S- and R-enantiomer against ROCK1” value in assay [5] is listed as “no statistically meaningful difference”. Also, the “CB1 (h) (agonist effect) (EC50)” value in assay [6] was “Inactive”.
